Test results taken from patent US20090105149A1, “Compounds comprising lpa” (ENKAM PHARMACEUTICALS A/S, priority 2003, published 2009).
Marks after values point to notes of the source that are not given here.

Key:
[1] = system: dopaminergic neurons; assay: Survival of dopaminergic neurons exposed to 6-OHDA; type: cell-based, rat
Protocol: Dopaminergic neurons (DN) (a and b) from day 15 rat embryos grown at a density of 150,000 cells/cm^2 for six days without or with various concentrations of peptide on 24-well cell culture plates coated with poly-D-lysine were exposed to 100 μM 6-OHDA for two hours. Medium was changed and various concentrations of FGLd were added. The neurons were grown for another 24 hours before the cultures they were fixed and immunostained for tyrosine hydroxylase.
Dopaminergic neurons were prepared from Wistar rat embryos at embryonic day 15 (Charles River, Sulzfeld, Germany or Møllegaard, Denmark). A pregnant rat was sacrificed and the uterus was taken out and kept on ice in Hank's balanced salt solution (HBSS; Gibco, BRL). The ventral part of the mesencephalon was dissected from the embryonic brains, homogenised on ice in Gey's balanced salt solution (GBSS; Gibco, BRL) supplemented with 5 g glucose/l (Sigma-Aldrich) and thereafter trypsinised. The dissociated cells were washed in the presence of DNAse 1 and soybean trypsin inhibitor (Sigma-Aldrich).
For the survival assay isolated neurons were seeded at a density of 150,000 cells/cm^2 in 24-well cell culture plates coated with poly-D-lysine as described above. The neurons were left to differentiate for six days without or with various concentrations of the FGL peptide, after which 6-OHDA was added at a concentration of 100 μM for two hours. A stock solution was prepared by dissolving 6-OHDA to a concentration of 10 mM in 0.1% (w/v) sodium metabisulfite in order to prevent oxidation. After two hours with 6-OHDA, the medium was changed to Neurobasal medium with supplements and peptide, and the cell cultures were further incubated for 24 hours, fixed and immunostained for tyrosine hydroxylase. 98 images for each experimental condition in each individual experiment were automatically recorded as described for the dopaminergic neurite outgrowth assay below.

[2] = system: dissociated hippocampal neurons; assay: OGD, metabolic activity (MTS) in dissociated hippocampal cell cultures; type: cell-based, rat
Source text: In the present study it was investigated the effect of the FGL peptide on synaptic plasticity, neuronal function and vulnerability following oxygen and glucose deprivation (OGD) in organotypic hippocampal neuronal slice cultures (OHSC) from 7-day-old Wistar rats according to method of Stoppini et al. (1991) Neurosci Methods. 37:173-82 and primary cultures of dissociated hippocampal neurons from 1-day-old rats according to method of Maar et al. (1997) J Neurosci Res. 47:163-72. Primary cell cultures were maintained for 11-12 days and OHSC for 12-14 days prior to adding FGLd.
The primary cell cultures and OHSC were exposed to OGD for 10 and 20 minutes. Following OGD, the cultures were again supplied with oxygen and glucose and analysed at 1, 4 or 24 hour time point after introduction of OGD exposure. FGLd (or the control peptide FGLc) was added 24 hr before, immediately, or 1 hr or 24 hr after OGD. When administered prior to OGD, FGLd was removed from the medium when introducing OGD. In some cases, the slice cultures were treated with FGLd only at 4 hr after OGD. In addition, the FGFR inhibitor, SU5402 (25 μM), was added together with FGLd in some of the set-ups.
In hippocampal neuronal cultures, FM 1-43 staining was used to evaluate pre-synaptic function (described above). Cell viability in both primary cell cultures and OHSC was measured using the […] [3-(4,5-dimethylthiazol-2-yl)-2,5-diphenyltetrazolium bromide] assay according to Malich et al, (1997) Toxicology. 124:179-92. In, addition, cell viability in OHSC was measured using propidium iodide (PI) staining according to Laake et al. (1999) Brain Res Brain Res Protoc. 4:173-84.

[3] = system: rats treated with (25-35) β-amyloid fragment; assay: Amyloid burden in brain sections, (25-35) β-amyloid fragment rat model; type: in vivo; conditions: Study 2; sub-occipital 5 μg, days 7, 10, 13; β-amyloid only = 100%
Protocol: The number of animals in the groups varied from 3 to 13. Results were analysed using one-way ANOVA (F(2,18)=5.2, p=0.016), and significance of results was contingent on achieving a p-value of less than 0.05 (*p<0.05 and **p<0.01), when compared with the A-β/V group (Newman-Keuls posttest).
The number of animals in the groups varied from 2 to 12. Results were analysed using one-way ANOVA (F(2,15)=9.54, p=0.002), and significance of results was contingent on achieving a p-value of less than 0.05 (***p<0.001), when compared with the A-β/V group (Newman-Keuls posttest).
The number of animals per group varied from 3 to 13. The results were analysed using one-way ANOVA (F(2,12)=18.6, P=0.002) and significance of results was contingent on achieving a p-value of less than 0.05 (***p<0.001) when compared with the A-β/V group (Bonferroni's multiple comparison test).
The number of animals per group varied from 3 to 5. The results were analysed using one-way ANOVA (F(2,9)=10.6, P=0.004) and significance of results was contingent on achieving a p-value of less than 0.05 (***p<0.001) when compared with the A-β/V group (Newman-Keuls post-test).
Behaviour of animals was evaluated using the Social Recognition test, the Open Field test or the Light-dark Discriminating γ-maze. […] In addition, the number of neurons in selected areas of brain-sections was calculated using a stereological approach.

[4] = system: rats; assay: Open Field test in normal rats; type: in vivo, rat; conditions: additional experiments
[5] = system: cerebellar granule neurons (CGN); assay: Survival of CGN induced to undergo apoptosis by low KCl; conditions: for Neuronal Survival (% of Control): Low K+ (5 mM)
Protocol: Cerebella granular meurons (CGN) (e and f) from postnatal day 7 rats were grown at a density of 100,000 cells/cm^2 for 7 days on poly-L-lysine coated microtiter plates in the medium containing 40 mM KCl, then the medium was substituted to a 5 mM KCl containing medium supplemented with various concentrations of FGLd.
For the experiments cerebellar tissue was dissected in modified Krebs-Ringer solution kept on ice, and treated as described for the hippocampal neurons above. All cell cultures were incubated at 37° C. in a humidified atmosphere containing 5% CO2.
Primary cultures of CGN were plated at a density of 100,000 cells/cm^2 on poly-L-lysine coated 8-well permanox slides in Neurobasal-A medium (Gibco, BRL) supplemented with 2% (v/v) B27, 0.5% (v/v) glutamax, 100 U/ml penicillin, 100 μg/ml streptomycin and KCl, making the final concentration of KCl in the medium 40 mM. 24 hours after plating, cytosine-β-D-arabinofuranoside (Ara-C; Sigma-Aldrich) was added to a final concentration of 10 μM to avoid proliferation of glial cells, after which the neurons were allowed to differentiate for further six days at 37° C. Apoptotic cell death was induced by washing twice and changing the medium to Basal Medium Eagle (BME; Gibco BRL) supplemented with 1% (v/v) glutamine, 100 U/ml penicillin and 100 μg/ml streptomycin, 3.5 g D-glucose/l and 1% (v/v) sodium pyruvate (Gibco BRL) together with various concentrations of peptide. Thereby the concentration of potassium in the cultures was reduced to 5 mM KCl. Two days after induction of apoptosis, the cells were fixed with 4% formaldehyde and stained with Hoechst 33258 as described for the survival assay employing hippocampal neurons.

For “FGLd: MAP-type dendrimer of FGL; dendrimeric tetramer of the FGL peptide (EVYVVAENQQGKSKA)”, the “Neuronal Survival (% of Control)” value ([1]; 6-OHDA, DA (E14), 1 μg/mL) was 143%* % of Control, the “survival of dopaminergic neurons treated with 6-OHDA, maximal rescue” value ([1]; at 1 μg/ml, 6-OHDA-treated control = 100%) was “approximately 135%” and the “metabolic activity (MTS), treatment alone” value ([2]; no OGD) was “led to an increase in metabolic activity”. The “metabolic activity (MTS) after 20 min OGD” value ([2]; treated 24 hours before or immediately after OGD) was “the effect of OGD on metabolic activity was diminished”, the “amyloid burden in the CA3 area of the hippocampus” value [3] was 44% and the “amyloid burden in the cingulate cortex” value [3] was 42%. For the same substance, the “emotional or locomotor behaviour” value [4] was “did not influence emotional or locomotor behaviour”, the “Neuronal Survival (% of Control)” value ([5]; CGN (PND 3-4), 1 μg/mL) was 131%* % of Control and the “Neuronal Survival (% of Control)” value ([5]; CGN (PND 3-4), 5 μg/mL) was 110%* % of Control. For the same substance, the “Neuronal Survival (% of Control)” value ([5]; CGN (PND 3-4), 10 μg/mL) was 132%* % of Control, the “Neuronal Survival (% of Control)” value ([5]; CGN (PND 3-4), 20 μg/mL) was 117%** % of Control and the “Neuronal Survival (% of Control)” value ([5]; CGN (PND 7-8), 20 μg/mL) was 175%* % of Control. For the same substance, the “maximal neuroprotection of CGN” value ([5]; at 1-10 μg/ml, controls grown at low KCl = 100%) was 135%.
